These results are taken from paper PMC12783763 (Nature Communications, 2025).

The target in this assay is NPM1 (nucleophosmin 1) (Homo sapiens, UniProt P06748). Put plainly: surface plasmon resonance. It counts as binding. In general terms: SPR reads the build-up and loss of mass on a sensor chip optically.
NPM1 (nucleophosmin 1), sequence (P06748 whole entry): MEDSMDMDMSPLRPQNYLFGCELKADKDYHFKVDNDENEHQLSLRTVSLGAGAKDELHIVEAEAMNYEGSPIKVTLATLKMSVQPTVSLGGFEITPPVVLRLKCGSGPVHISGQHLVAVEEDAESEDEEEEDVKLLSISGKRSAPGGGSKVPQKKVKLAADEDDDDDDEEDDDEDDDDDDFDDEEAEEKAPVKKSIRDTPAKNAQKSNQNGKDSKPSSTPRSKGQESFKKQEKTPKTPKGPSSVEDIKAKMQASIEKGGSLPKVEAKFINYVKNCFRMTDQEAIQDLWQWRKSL

Molecule `C[C@H](CCC(=O)NCCS(=O)(=O)O)[C@H]1CC[C@H]2[C@@H]3[C@H](O)C[C@@H]4C[C@H](O)CC[C@]4(C)[C@H]3CC[C@]12C` [taurochenodeoxycholic acid] gave a Kd of 20.9 µM. That is a double-digit micromolar value.

The term Kd denotes the constant that tells how readily two partners part at equilibrium. A lower Kd goes with tighter binding.
